Measured values reported in patent US6984634B2, “Bile-acid conjugates for providing sustained systemic concentrations of drugs” (XenoPort, Inc., priority 2000, dated 2006).
Where two headings read alike, the source gives them in different places.

Experiments:
[1] = biological target: T1, LBAT transporter (Homo sapiens, UniProt Q14973); assay: Inhibition of radiolabeled taurocholate uptake in LBAT-expressing CHO cells; format: cell-based; conditions: radiolabeled competition assay in LBAT-expressing CHO cells, taurocholate 5 μM
T1 sequence (Q14973 1-349): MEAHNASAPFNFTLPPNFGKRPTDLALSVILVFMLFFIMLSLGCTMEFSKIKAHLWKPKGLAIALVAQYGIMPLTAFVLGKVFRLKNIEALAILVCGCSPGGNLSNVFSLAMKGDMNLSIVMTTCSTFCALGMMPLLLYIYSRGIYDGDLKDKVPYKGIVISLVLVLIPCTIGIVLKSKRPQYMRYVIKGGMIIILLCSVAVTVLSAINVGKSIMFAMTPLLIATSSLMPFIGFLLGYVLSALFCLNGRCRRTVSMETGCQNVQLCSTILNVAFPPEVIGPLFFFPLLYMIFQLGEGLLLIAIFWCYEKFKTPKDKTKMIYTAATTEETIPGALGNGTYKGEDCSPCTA
Protocol: (§1) (a) Inhibition of Radiolabeled Taurocholate Uptake
(§2) CHO cells transfected with the IBAT or LBAT transporter were seeded into 96-well microtiter plates at 100,000 cells/well in 100 μL DMEM containing 10% serum, glutamine and Penstrep. After overnight incubation the media was removed and test compound (25 μL) added at 2× the final desired concentration. Tritiated taurocholate (50,000 CPM/well) was diluted with cold substrate to a final concentration of 5 μM and 25 μL/well of this mixture was added to the plate. After incubating for 1 h at room temperature the solution was removed and the plate washed 4× with PBS at 4° C. 200 μL/well of scintillant is added and the plate then read in a Wallac microbeta counter. The inhibition data is processed by standard methods to calculate an inhibition constant K1 for the test compound.

[2] = biological target: T2, IBAT transporter (Homo sapiens, UniProt Q12908); assay: Electrogenic transport in Xenopus oocytes expressing IBAT; format: cell-based; conditions: for % Max. (GDC): relative to glycodeoxycholate
T2 sequence (Q12908 1-348): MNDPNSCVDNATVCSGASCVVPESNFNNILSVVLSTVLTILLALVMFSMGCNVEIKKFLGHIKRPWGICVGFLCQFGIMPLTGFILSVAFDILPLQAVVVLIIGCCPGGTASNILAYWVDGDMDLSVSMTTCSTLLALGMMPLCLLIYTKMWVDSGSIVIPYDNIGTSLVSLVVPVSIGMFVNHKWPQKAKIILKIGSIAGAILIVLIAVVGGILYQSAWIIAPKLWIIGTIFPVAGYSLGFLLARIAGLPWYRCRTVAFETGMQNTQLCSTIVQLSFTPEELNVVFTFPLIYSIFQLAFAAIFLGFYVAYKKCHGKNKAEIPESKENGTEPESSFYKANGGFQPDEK
Excerpt: (b) Analysis of Electrogenic Transport in Xenopus Oocytes
RNA preparation: Human IBAT Transporter cDNAs were subcloned into a modified pGEM plasmid that contains 5′ and 3′ untranslated sequences from the Xenopus β-actin gene. These sequences increase RNA stability and protein expression. Plasmid cDNA was linearized and used as template for in vitro transcription (Epicentre Technologies transcription kit, 4:1 methylated:non-methylated GTP).
Xenopus oocyte isolation. Xenopus laevis frogs were anesthetized by immersion in Tricaine ([…] in deionized water) for 15 min. Oocytes were removed and digested in frog ringer solution (90 mM NaCl, 2 mM KCl, 1 mM MgCl2, 10 mM NaHEPES, pH 7.45, no CaCl2) with 1 mg/mL collagenase (Worthington Type 3) for 80-100 min with shaking. The oocytes were washed 6 times, and the buffer changed to frog ringer solution containing CaCl2 (1.8 mM). Remaining follicle cells were removed if necessary. Cells were incubated at 16° C., and each oocyte injected with […] RNA in […] solution.
Electrophysiology measurements. Transport currents were measured 2-14 days after injection, using a standard two-electrode electrophysiology set-up (Geneclamp 500 amplifier, Digidata 1320/PCLAMP software and ADInstruments hardware and software were used for signal acquisition). Electrodes ([…]) were microfabricated using a Sutter Instrument puller and filled with 3M KCl. The bath was directly grounded (transporter currents were less than 0.3 μA). Bath flow was controlled by an automated perfusion system (ALA Scientific Instruments, solenoid valves).
For transporter pharmacology, oocytes were clamped at −60 to −90 mV, and continuous current measurements acquired using PowerLab Software and an ADInstruments digitizer. Current signals were lowpass filtered at 20 Hz and acquired at 4-8 Hz. All bath and drug-containing solutions were frog ringers solution containing CaCl2. Drugs were applied for 10-30 seconds until the induced current reached a new steady-state level, followed by a control solution until baseline currents returned to levels that preceded drug application. The difference current (baseline subtracted from peak current during drug application) reflected the net movement of charge resulting from electrogenic transport and was directly proportional to tranport rate. Recordings were made from a single oocyte for up to 60 min, enabling 30-40 separate compounds to be tested per oocyte. […] To compare results between oocytes expressing different levels of transport activity, a saturating concentration of glycodeoxycholate (300 μM) was used as a common reference to normalize results from test compounds. Using this normalization procedure Vmax (i.e. maximal induced current) for different compounds tested on different oocytes could be compared.

[3] = biological target: T2, IBAT transporter; assay: Inhibition of radiolabeled taurocholate uptake in IBAT-expressing CHO cells; format: cell-based; conditions: radiolabeled competition assay in IBAT-expressing CHO cells, taurocholate 5 μM
Protocol: as §1, §2

[4] = biological target: T3, rPEPT1 (Rattus norvegicus, UniProt P51574); assay: Inhibition of radiolabeled Gly-Sar uptake in rPEPT1-expressing CHO cells; format: cell-based
T3 construct: expressed in transfected cells; host or cells: CHO cells
T3 sequence (P51574 1-710): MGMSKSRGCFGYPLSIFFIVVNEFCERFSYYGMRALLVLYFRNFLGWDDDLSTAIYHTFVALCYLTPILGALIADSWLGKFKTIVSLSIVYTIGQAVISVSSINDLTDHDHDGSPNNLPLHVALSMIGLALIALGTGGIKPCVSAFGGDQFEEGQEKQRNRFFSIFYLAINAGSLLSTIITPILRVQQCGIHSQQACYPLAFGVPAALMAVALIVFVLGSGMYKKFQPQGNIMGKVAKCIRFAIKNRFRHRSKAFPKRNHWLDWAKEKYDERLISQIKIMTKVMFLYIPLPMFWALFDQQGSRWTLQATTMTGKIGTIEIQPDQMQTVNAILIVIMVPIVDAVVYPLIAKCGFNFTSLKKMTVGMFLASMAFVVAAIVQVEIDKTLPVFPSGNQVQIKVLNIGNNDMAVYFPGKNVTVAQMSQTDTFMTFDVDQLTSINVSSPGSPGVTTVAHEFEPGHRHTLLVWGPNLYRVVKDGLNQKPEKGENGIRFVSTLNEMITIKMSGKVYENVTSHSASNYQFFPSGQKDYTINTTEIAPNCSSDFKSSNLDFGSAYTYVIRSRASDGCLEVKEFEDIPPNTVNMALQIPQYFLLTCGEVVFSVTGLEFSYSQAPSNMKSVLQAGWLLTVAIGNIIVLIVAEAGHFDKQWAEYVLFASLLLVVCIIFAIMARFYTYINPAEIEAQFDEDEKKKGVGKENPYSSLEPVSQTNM
Protocol: (§3) Rat and human PEPT1 and PEPT2 expressing CHO cell lines were prepared as described in PCT Application WO01/20331. Gabapentin-containing dipeptides were evaluated for interaction with the peptide transporters using a radiolabeled substrate uptake assay in a competitive inhibition format, as described in PCT Application WO01/20331. Transport-induced currents were also measured in Xenopus oocytes transfected with rat and human PEPT1 and PEPT2.

[5] = biological target: T3, rPEPT1; assay: Transport-induced currents in Xenopus oocytes expressing rPEPT1; format: cell-based; conditions: relative to Gly-Sar, test compound 1 mM
Protocol: as §3

[6] = biological target: T4, rPEPT2 (Rattus norvegicus, UniProt Q63424); assay: Transport-induced currents in Xenopus oocytes expressing rPEPT2; format: cell-based; conditions: relative to Gly-Sar, test compound 1 mM
T4 construct: expressed in transfected cells; host or cells: Xenopus oocytes
T4 sequence (Q63424 1-729): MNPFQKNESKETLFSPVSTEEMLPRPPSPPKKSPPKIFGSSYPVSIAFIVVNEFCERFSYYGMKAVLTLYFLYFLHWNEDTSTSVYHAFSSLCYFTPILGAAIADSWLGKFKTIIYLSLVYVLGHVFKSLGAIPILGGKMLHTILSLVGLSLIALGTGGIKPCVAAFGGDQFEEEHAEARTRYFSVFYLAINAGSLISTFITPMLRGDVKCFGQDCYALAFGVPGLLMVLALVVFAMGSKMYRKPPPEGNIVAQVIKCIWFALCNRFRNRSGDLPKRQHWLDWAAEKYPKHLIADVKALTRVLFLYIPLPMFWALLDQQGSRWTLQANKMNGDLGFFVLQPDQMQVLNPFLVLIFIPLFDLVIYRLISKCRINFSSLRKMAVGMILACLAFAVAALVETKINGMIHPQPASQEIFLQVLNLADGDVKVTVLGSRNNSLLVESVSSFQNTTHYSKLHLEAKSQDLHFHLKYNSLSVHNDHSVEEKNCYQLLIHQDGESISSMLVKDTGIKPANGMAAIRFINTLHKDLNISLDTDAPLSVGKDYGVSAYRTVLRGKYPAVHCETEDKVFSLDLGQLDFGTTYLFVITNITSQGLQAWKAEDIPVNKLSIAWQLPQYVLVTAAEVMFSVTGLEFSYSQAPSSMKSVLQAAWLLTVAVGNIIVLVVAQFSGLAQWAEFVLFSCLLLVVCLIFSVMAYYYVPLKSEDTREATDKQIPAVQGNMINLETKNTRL
Protocol: as §3

[7] = biological target: T4, rPEPT2; assay: Inhibition of radiolabeled Gly-Sar uptake in rPEPT2-expressing CHO cells; format: cell-based
Protocol: as §3

[8] = Pharmacokinetics in rats, Gabapentin in plasma after oral administration; conditions: male, Sprague-Dawley, rat, 25 mg/kg
Protocol: The pharmacokinetics of the prodrug Cholyl-Phe-Gabapentin (9g) were examined in rats. Three groups of four male Sprague-Dawley rats (approx 200 g) with jugular cannulae each received one of the following treatments: A) a single bolus intravenous injection of Gabapentin (25 mg/kg, as a solution in water); B) a single oral dose of Gabapentin (25 mg/kg, as a solution in water) administered by oral gavage; C) a single oral dose of (9g) (103.5 mg/kg, as a solution in water) administered by oral gavage. Animals were fasted overnight prior to dosing and until 4 hours post-dosing. Serial blood samples were obtained over 24 hours following dosing and blood was processed for plasma by centrifugation. Plasma samples were stored at −80° C. until analyzed.
Concentrations of (9g) or (2) in plasma samples were determined by LC/MS/MS as described above. Plasma (50 μL) was precipitated by addition of […] of methanol and supernatent was injected directly onto the LC/MS/MS system.

SMILES | IC50 [1] [µM] | EC50 [2] [µM] | IC50 [3] [µM] | % Max. (Gly-Sar) [5] [%] | also measured
CC(CCC(=O)NC(Cc1ccc(O)cc1)C(=O)NCC1(CC(=O)O)CCCCC1)C1CCC2C3C(O)CC4CC(O)CCC4(C)C3CC(O)C12C (centres unmarked) [Cholyl-Tyr-Gabapentin (9h), Cholyl-Tyr-Gabapentin] | 15 | 160 | 52 | – | % Max. (GDC) [2]: 13%
NC(Cc1ccccc1)C(=O)NCC1(CC(=O)O)CCCCC1 (centres unmarked) [Phe-Gabapentin] | – | – | – | 52 | IC50 [4]: 56 µM; % Max. (Gly-Sar) [6]: 77%
NCC(=O)NCC1(CC(=O)O)CCCCC1 [Gly-Gabapentin] | – | – | – | 76 | IC50 ([4]; radiolabeled competition assay in rPEPT1-expressing CHO cells, read-out: IC50): 320 µM
NC(Cc1ccc(O)cc1)C(=O)NCC1(CC(=O)O)CCCCC1 (centres unmarked) [Tyr-Gabapentin] | – | – | – | 22 | IC50 [7]: 4 µM; IC50 [4]: 130 µM; % Max. (Gly-Sar) [6]: 73%
NCC1(CC(=O)O)CCCCC1 [Gabapentin, gabapentin] | – | – | – | – | bioavailability ([8]; oral): 87 ± 18%; Tmax ([8]; po): 1.3 ± 0.5 h; half-life ([8]; po): 3 ± 1.3 h
CC(CCC(=O)NC(Cc1ccccc1)C(=O)NCC1(CC(=O)O)CCCCC1)C1CCC2C3C(O)CC4CC(O)CCC4(C)C3CCC12C (centres unmarked) [UDC-Phe-Gabapentin (9p), Ursodeoxycholyl-Phe-Gabapentin] | 0.7 | 18 | 27 | – | % Max. (GDC) [2]: 27%
C[C@H](CCC(=O)NCC(=O)NCC1(CC(=O)O)CCCCC1)[C@H]1CC[C@H]2[C@@H]3[C@H](O)C[C@@H]4C[C@H](O)CC[C@]4(C)[C@H]3C[C@H](O)[C@]12C [Cholyl-Gly-Gabapentin (9a), Cholyl-Gly-Gabapentin] | 64 | 22 | 66 | – | –
